Read-outs that look alike come from different tables or passages of the source.
How the values were obtained:
[1] = target: Focal Adhesion Kinase (FAK) (Homo sapiens, UniProt Q05397); experiment: FAK assay system (Focal Adhesion Kinase inhibition); assay type: biochemical; conditions: read-out: FAK IC50
[2] = tested on: Mouse mammary carcinoma 4T1 cells; experiment: Anchorage-independent tumor cell growth assay; assay type: cell-based
Protocol: Cells are cultured for 2 h and inhibitors are added at various concentrations in a final concentration of 0.1% DMSO. After 48 h, cell growth is assayed with the cell counting kit-8 (Wako Pure Chemical), which uses a water soluble tetrazolium salt WST8. Twenty μL of the reagent is added into each well and cells are further cultured for 2 h. The optical density is measured at 450 nm.

FAK = FAK (Mus musculus, UniProt P34152); experiment: Phos IC50 (phosphorylation); assay type: cell-based
Chain of FAK (P34152 2-1052): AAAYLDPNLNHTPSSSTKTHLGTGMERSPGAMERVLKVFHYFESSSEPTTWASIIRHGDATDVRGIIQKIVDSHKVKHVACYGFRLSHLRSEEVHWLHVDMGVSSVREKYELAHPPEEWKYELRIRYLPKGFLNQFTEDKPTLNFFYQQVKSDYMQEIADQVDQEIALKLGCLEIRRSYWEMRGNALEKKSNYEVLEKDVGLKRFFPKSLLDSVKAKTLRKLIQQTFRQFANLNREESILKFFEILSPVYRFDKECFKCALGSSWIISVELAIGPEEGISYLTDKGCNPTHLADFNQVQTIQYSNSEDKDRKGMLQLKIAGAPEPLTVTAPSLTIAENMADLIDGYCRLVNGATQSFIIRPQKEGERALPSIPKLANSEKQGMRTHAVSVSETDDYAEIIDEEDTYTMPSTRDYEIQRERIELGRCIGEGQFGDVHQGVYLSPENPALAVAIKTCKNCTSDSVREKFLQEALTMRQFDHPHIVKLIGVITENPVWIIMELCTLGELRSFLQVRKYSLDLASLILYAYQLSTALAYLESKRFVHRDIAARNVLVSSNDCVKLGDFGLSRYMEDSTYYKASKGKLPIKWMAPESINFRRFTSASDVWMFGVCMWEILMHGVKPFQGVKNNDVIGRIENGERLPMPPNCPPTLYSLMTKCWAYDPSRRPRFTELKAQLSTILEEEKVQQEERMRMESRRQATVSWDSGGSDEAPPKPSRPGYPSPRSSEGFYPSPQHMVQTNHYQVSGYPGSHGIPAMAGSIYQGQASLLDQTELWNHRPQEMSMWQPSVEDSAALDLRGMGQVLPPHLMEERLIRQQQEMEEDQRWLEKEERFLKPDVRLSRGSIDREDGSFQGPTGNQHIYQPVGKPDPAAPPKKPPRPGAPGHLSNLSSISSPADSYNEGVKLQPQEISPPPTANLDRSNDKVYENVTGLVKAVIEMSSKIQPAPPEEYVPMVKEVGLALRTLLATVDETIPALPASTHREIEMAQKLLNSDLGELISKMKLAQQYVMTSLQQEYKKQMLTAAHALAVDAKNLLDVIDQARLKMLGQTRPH

Chain of Focal Adhesion Kinase (FAK) (Q05397 384-706): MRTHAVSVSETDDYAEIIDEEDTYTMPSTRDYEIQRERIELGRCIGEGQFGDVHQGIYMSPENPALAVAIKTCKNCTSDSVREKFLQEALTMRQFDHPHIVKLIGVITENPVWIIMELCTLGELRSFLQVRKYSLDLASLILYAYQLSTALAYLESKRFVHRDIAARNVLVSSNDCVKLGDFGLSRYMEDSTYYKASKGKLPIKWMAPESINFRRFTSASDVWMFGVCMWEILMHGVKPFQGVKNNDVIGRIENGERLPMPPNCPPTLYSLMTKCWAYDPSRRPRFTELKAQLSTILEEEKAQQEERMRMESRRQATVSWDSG

Row | IC50 [1] [nM] | IC50 ([2]; Mus musculus, 4T1) [nM] | IC50 (FAK) [nM] | IC50 [2] [nM] | SMILES
1 | 9.1 | 2030 | > 10000 |  | COc1cc(N2CCC(OC)CC2)ccc1Nc1ncc(Cl)c(Nc2ccccc2S(=O)(=O)C(C)C)n1 [Example 28-18]
2 | 34 | 150 | 1000 |  | CNC(=O)c1ccccc1Nc1nc(Nc2cccc3c2ccn3C)ncc1Cl [Example 7-28]
3 | 4.4 | 760 | 1000 |  | CCCS(=O)(=O)c1ccccc1Nc1nc(Nc2ccc(F)cc2OC)ncc1Cl [Example 26-30]
4 | 5.2 | 290 | 1000 |  | CNC(=O)c1ccccc1Nc1nc(Nc2ccc(OCCN3CCOCC3)cc2OC)ncc1Cl [Example 7-4]
5 | 26 | 1060 | 900 |  | CNC(=O)c1c(C)cccc1Nc1nc(Nc2ccc(N3CCC(N4CCCCC4)CC3)cc2OC)ncc1Cl [Example 10-2]
6 | 29 | 2000 | 420 |  | CNS(=O)(=O)c1ccccc1Nc1nc(Nc2cc(Cl)ccc2OC)ncc1Br [Example 3-52]
7 | 22 | 430 | > 10000 |  | CNS(=O)(=O)c1ccccc1Nc1nc(Nc2ccc(N3CCSCC3)cc2OC)ncc1Br [Example 3-41]
8 | 15 | 1030 | 1000 |  | COc1cc(N2CCC[C@@H](C(N)=O)C2)ccc1Nc1ncc(Cl)c(Nc2ccccc2S(=O)(=O)C2CC2)n1 [Example 30-6]
9 | 3.3 | 1100 | 700 |  | CCC(CC)S(=O)(=O)c1ccccc1Nc1nc(Nc2ccc(N3CCC(N4CCCCC4)CC3)cc2OC)ncc1Cl [Example 29-2]
10 | 10 | 220 | > 10000 |  | CNS(=O)(=O)c1ccccc1Nc1nc(Nc2cc(OC3CCNCC3)ccc2OC)ncc1Br [Example 3-78]
11 | 84 | 1710 | > 10000 |  | COc1c(Nc2ncc(Cl)c(Nc3ccccc3S(=O)(=O)NC(C)C)n2)ccc(OC2CCN(C)CC2)c1F [Example 19-21]
12 | 27 | > 10000 | > 10000 |  | CCCOc1ccc(OC)cc1Nc1ncc(Br)c(Nc2ccccc2S(=O)(=O)NC)n1 [Example 3-63]
13 | 23 | 1900 | 580 |  | CNS(=O)(=O)c1ccccc1Nc1nc(Nc2ccccc2OC(F)F)ncc1Cl [Example 20-4]
14 | 74 | 6000 | 300 |  | CNc1ccccc1Nc1ncc(Br)c(Nc2ccccc2S(=O)(=O)NC)n1 [Example 3-8]
15 | 25 | 990 | 300 |  | COc1cc(-n2cncn2)ccc1Nc1ncc(Cl)c(Nc2ccccc2S(=O)(=O)C2CC2)n1 [Example 30-4]
16 | 1.6 | 440 | 200 |  | CCCS(=O)(=O)c1ccccc1Nc1nc(Nc2ccc(N3CCC[C@@H](C(N)=O)C3)cc2OC)ncc1Cl [Example 26-13]
17 | 6.8 | 1430 | > 10000 |  | CNC(=O)c1cc(N2CCN(C)CC2)ccc1Nc1nc(Nc2ccc(N3CCOCC3)cc2OC)ncc1Cl [Example 35-1]
18 | 13 | 120 | 1000 |  | CNS(=O)(=O)c1ccccc1Nc1nc(Nc2cc(N3CCN(C(C)=O)CC3)ccc2OC)ncc1Cl [Example 20-34]
19 | 5 | 120 | 1300 |  | CNS(=O)(=O)c1ccccc1Nc1nc(Nc2ccc(OC3CCNCC3)cc2OC)ncc1Br [Example 3-79]
20 | 2.5 | 1100 | 300 |  | COc1cc(N2CCC(NC(C)=O)C2)ccc1Nc1ncc(Cl)c(Nc2ccccc2S(=O)(=O)NC(C)C)n1 (stereo not drawn) [Example 19-13]
21 | 10 | 690 | 500 |  | COc1cc(N2CCC(C(N)=O)CC2)ccc1Nc1ncc(Cl)c(Nc2ccccc2S(=O)(=O)C(C)C)n1 [Example 28-15]
22 | 120 | 2000 | 900 |  | CNS(=O)(=O)c1ccccc1Nc1nc(Nc2cc(C(=O)N3CCOCC3)ccc2C)ncc1Br [Example 3-22]
23 | 5.5 | 1220 | 800 |  | CNC(=O)c1ccccc1Nc1nc(Nc2ccc(N3CCC(C(N)=O)CC3)cc2OC)ncc1Cl [Example 7-13]
24 | 4.1 | 180 | 900 |  | CNC(=O)c1ccccc1Nc1nc(Nc2ccc(N3CCN(C(C)=O)CC3)cc2OC)ncc1Cl [Example 7-7]
25 | 6.2 | 60 | 210 |  | CNS(=O)(=O)c1ccccc1Nc1nc(Nc2ccc(OCC3CCN(C)CC3)cc2OC)ncc1Cl [Example 20-25]
26 | 5.1 | 1100 | 500 |  | CCS(=O)(=O)c1ccccc1Nc1nc(Nc2ccc(N3CCC(N4CCCCC4)CC3)cc2OC)ncc1Cl [Example 27-2]

Row | IC50 [1] [nM] | IC50 ([2]; Mus musculus, 4T1) [nM] | IC50 (FAK) [nM] | IC50 [2] [nM] | SMILES
27 | 6.1 | 300 | 100 |  | CC(C)NS(=O)(=O)c1ccccc1Nc1nc(Nc2ccc(OCCN3CCOCC3)cc2F)ncc1Cl [Example 19-26]
28 | 4.1 | 690 | 800 |  | CNC(=O)c1cc(F)ccc1Nc1nc(Nc2ccc(N3CCC(N4CCCCC4)CC3)cc2OC)ncc1Cl [Example 11-2]
29 | 7.4 | 290 | 70 |  | COc1cc(N2CCOCC2)ccc1Nc1ncc(Cl)c(Nc2ccccc2S(=O)(=O)C(C)C)n1 [Example 28-3]
30 | 1.8 | 300 | 50 |  | CCC(C)NS(=O)(=O)c1ccccc1Nc1nc(Nc2ccc(OCCN3CCOCC3)cc2OC)ncc1Cl (stereo not drawn) [Example 21-4]
31 | 9 | 850 | 700 |  | CNC(=O)c1cc(F)ccc1Nc1nc(Nc2ccc(N3CCOCC3)cc2OC)ncc1Cl [Example 11-1]
32 | 34 | 3000 | > 10000 |  | CCOc1ccc(OCC)c(Nc2ncc(Br)c(Nc3ccccc3S(=O)(=O)NC)n2)c1 [Example 3-55]
33 | 14 | 470 | 60 |  | CCS(=O)(=O)c1ccccc1Nc1nc(Nc2ccc(N3CCOCC3)cc2OC)ncc1Cl [Example 27-1]
34 | 19 | 680 | 500 |  | COc1cc(N2CCCC(C(N)=O)C2)ccc1Nc1ncc(Cl)c(Nc2ccccc2S(=O)(=O)C2CC2)n1 (stereo not drawn) [Example 30-3]
35 | 10 | 80 | 1000 |  | CNS(=O)(=O)c1ccccc1Nc1nc(Nc2cc(N3CCN(C)CC3)ccc2OC)ncc1Br [Example 3-84]
36 | 7 | 870 | 130 |  | CCN(CC)C(=O)C1CCCN(c2ccc(Nc3ncc(Cl)c(Nc4ccccc4S(=O)(=O)NC(C)C)n3)c(OC)c2)C1 (stereo not drawn) [Example 19-18]
37 | 57 | 480 | 2000 |  | CNC(=O)c1ccccc1Nc1nc(Nc2ccc(N3CCOCC3)c3c2ccn3C)ncc1Cl [Example 7-29]
38 | 28 | 3000 | 610 |  | CCOc1ccc(N2CCOCC2)cc1Nc1ncc(Br)c(Nc2ccccc2S(=O)(=O)NC)n1 [Example 3-57]
39 | 7.5 | 300 | 300 |  | COc1cc(-n2cncn2)ccc1Nc1ncc(Cl)c(Nc2ccccc2S(=O)(=O)C(C)C)n1 [Example 28-4]
40 | 3 | 1440 | 100 |  | COc1cc(N2CCN(C(C)C)CC2)ccc1Nc1ncc(Cl)c(Nc2ccccc2S(=O)(=O)C(C)C)n1 [Example 28-14]
41 | < 1 |  | 100 | 280 | CCCS(=O)(=O)c1ccccc1Nc1nc(Nc2ccc(N3CCNC(=O)C3)cc2OC)ncc1Cl [Example 26-22]
42 | 2.5 | 250 | 80 |  | COc1cc(N2CCN(C(C)=O)CC2)ccc1Nc1ncc(Cl)c(Nc2ccccc2S(=O)(=O)C2CCCC2)n1 [Example 33-1]
43 | 11 | 80 | 50 |  | CNS(=O)(=O)c1ccccc1Nc1nc(Nc2ccc(OCCCN3CCOCC3)cc2C)ncc1Br [Example 3-71]
44 | 1 |  | 70 | 190 | CCC(C)NS(=O)(=O)c1ccccc1Nc1nc(Nc2ccc(N3CCN(C)CC3)cc2OC)ncc1Cl (stereo not drawn) [Example 21-1]
45 | 5.9 | 280 | 500 |  | COc1cc(N2CCN(C)C(=O)C2)ccc1Nc1ncc(Cl)c(Nc2ccccc2S(=O)(=O)C(C)C)n1 [Example 28-23]
46 | 30 | 1600 | > 10000 |  | COc1cc(F)ccc1Nc1ncc(Cl)c(Nc2ccccc2S(C)(=O)=O)n1 [Example 31-1]
47 | 2 | 20 | 100 |  | CNS(=O)(=O)c1ccccc1Nc1nc(Nc2cccc3c2ccn3CCCN2CCOCC2)ncc1Cl [Example 20-10]
48 | 140 | > 10000 | 700 |  | CNS(=O)(=O)c1ccccc1Nc1nc(Nc2cc(OC)ccc2OC)ncc1[N+](=O)[O-] [Example 1, 2-[2-(2,5-Dimethoxy-phenylamino)-5-nitro-pyrimidin-4-ylamino]-N-methyl-benzenesulfonamide]
49 | 54 | 5000 | 400 |  | CNS(=O)(=O)c1ccccc1Nc1nc(Nc2cccc(OC)c2OC)ncc1Br [Example 3-14]
50 | 6.6 | 330 | 600 |  | CNC(=O)c1ccccc1Nc1nc(Nc2cc(N3CCOCC3)ccc2OC)ncc1Br [Example 8-1]
51 | 6.8 | 1460 | 870 |  | CNS(=O)(=O)c1ccccc1Nc1nc(Nc2ccc(N3CCC(NC(C)=O)C3)cc2OC)ncc1Cl (stereo not drawn) [Example 20-5]
52 | 2.1 | 60 | 110 |  | CNS(=O)(=O)c1ccccc1Nc1nc(Nc2ccc(OCCCN3CCN(C)CC3)cc2OC)ncc1Br [Example 3-72]
